Like-named read-outs stand apart in the source and are kept apart here. Marks after values point to notes of the source that are not given here.

These results are taken from patent US12343350B2, “Istaroxime-containing intravenous formulation for the treatment of acute heart failure (AHF)” (Windtree Therapeutics, Inc., priority 2019, dated 2025).

The nature of data set [1]: Plasma levels of istaroxime and its metabolites in patients (HPLC-MS/MS). Type of data set: in vivo, human. Conditions: for plasma concentration course during the infusion period: 24 h infusion of 0.5 or 1 μg/kg/min istaroxime, Caucasian and Chinese patients. As to the method: The quantitative determination of PST 2744 and its metabolite PST 2915 in human plasma was determined by the HPLC-MS/MS method that included a mobile phase of 70:30 acetonitrile/water, 1 mL/L 1M formic acid, and 1 mL/L 5M ammonium acetate. The flow rate was 1 mL/min, and the chromatographic separation was by reversed phase HPLC (Column: SYNERGI 4μ POLAR-RP80A 150×4.6 mm equipped with a Security-guard Phenomenex Polar-RP 4×3 mm). Detection was performed by MS/MS, and the acquisition mode was Multiple Reaction Monitoring (MRM).
The quantitative determination of istaroxime metabolies PST 2922 and PST 3093 in human plasma was also measured by the HPLC-MS/MS method. In this case, the mobile phase was 50:50 H2 O/CH3 CN (v/v) and 500 μL/L 98-100% HCOOH. The flow rate was 1 mL/min and chromatographic separation was done by reversed-phase HPLC (Column: Phenomenex Phenyl hexyl, 150×4.6 mm, equipped with a Phenomenex phenyl propyl guard-cartridge) under isocratic conditions. Detection was performed by MS/MS (376.0→282.0 amu for PST2922, 378.0→284.0 amu for PST 3093 and 362.0→268.0 amu for PST 3418, IS).

Data set [2] can be described thus: Acute toxicity (LD50) in mouse. In kind it is in vivo. Conditions: Albino Swiss CD-1, in vivo, single administration. As to the method: Acute toxicity has been determined in the mouse (Albino Swiss CD-1, body weight 30 g). Mice were orally treated, or intravenously injected, with single administration of increasing doses of the test substance to identify the dose causing 50% mortality. Mortality occurred within 30 min after the administration and survival after 24 h. The acute toxicity (LD50) was then assessed.
The acute toxicity of the tested compound PST 3093 was determined in the mouse (Albino Swiss CD-1, body weight 30 g). Compound PST 3093 was orally administered or intravenously injected at increasing doses to identify the dose causing 50% mortality. Mortality occurred within 30 min after the administration and survival after 24 h.

For a further data set, the target named is dog renal Na,K-ATPase (Canis lupus familiaris (Dog) (Canis familiaris), UniProt P50997). In words: Inhibition of dog renal Na,K-ATPase activity (32P-ATP). Type of data set: biochemical. The procedure: Kidneys were sliced and the outer medulla was dissected, pooled and suspended (1 g/10 ml) in a sucrose-histidine solution, containing 250 mM sucrose, 30 mM histidine and 5 mM EDTA, pH 7.2 and homogenized. The homogenate was centrifuged at 6.000 g for 15 min, the supernatant was decanted and centrifuged at 48.000 g for 30 min. The pellet was suspended in the sucrose-histidine buffer and incubated for 20 min with a sodium-dodecyl-sulphate (SDS) solution dissolved in a gradient buffer, containing 25 mM imidazole and 1 mM EDTA, pH 7.5. […] The pellet was suspended in the gradient buffer.
Increasing concentrations of the standard ouabain, or tested compound, were incubated with 0.3 μg of purified dog kidney enzyme for 10 min at 37° C. in 120 μl final volume of a medium containing 140 mM NaCl, 3 mM MgCl2, 50 mM Hepes-Tris, 3 mM ATP at a pH 7.5. Then, 10 μl of incubation solution containing 10 mM KCl and 20 nCi of ^32P-ATP (3-10 Ci/mmol, Perkin Elmer) was added, and the reaction was continued for 15 min at 37° C. The reaction was then stopped by acidification with 20% v/v ice-cold perchloric acid. ^32P was separated by centrifugation with activated Charcoal (Norit A, Serva) and the radioactivity was measured. The inhibitory activity was expressed as percent of the control samples carried out in the absence of ouabain or tested compound.

For another data set, the target named is SERCA2a (Canis lupus familiaris (Dog) (Canis familiaris), UniProt O46674). Briefly: SERCA2a ATPase activity in heart-derived SR microsomes from normal dog. Type of data set: biochemical. Conditions: for % increase vs control (Vmax) / Vmax: normal dog SR microsomes; for Vmax: mean ± SD. The procedure: Male beagle dogs were used for obtaining cardiac tissues for SERCA2a-enriched sarcoplasmic reticulum preparations. Healthy dogs were utilized for obtaining the data in Table 3. Chronic heart failure was induced in dogs by multiple intracoronary microembolizations with polystyrene latex microspheres ([…], Polysciences, Warrington, PA, USA) as described previously (see Sabbah H N et al., Am J Physiol. 1991; 260:H1379-84). The experiments were conducted in the General Pharmacology Department of Sigma-Tau, Rome, Italy.
Left ventricle tissues were dissected, homogenized in 4 volumes of 10 mM NaHCO3 (pH 7), 1 mM PMSF, 10 μg/ml Aprotinin and Leupeptin and centrifuged at 12.000 g for 15 minutes, as described in Nediani C. et al. (J Biol Chem. 1996; 271:19066-73). Supernatants were filtered and centrifuged at 100.000 g for 30 min. Contractile proteins were extracted by suspending the pellets with 0.6 M KCl, 30 mM Histidine, pH 7 and further centrifugation at 100.000 g for 30 min. Final pellets were reconstituted with 0.3 M Sucrose, 30 mM Histidine, pH 7.
SERCA2a activity was measured in vitro as ^32P-ATP hydrolysis at different Ca2^+ concentrations (100 to 3000 nM) in the absence and presence of the tested compounds as described previously (see Micheletti R. et al., Am J Card 2007; 99:24A-32A). Increasing concentrations of each compound (from 0.05 to 300 nM) were pre-incubated with 2 μg of microsomes for 5 min at 4° C. in 80 μl of a solution containing 100 mM KCl, 5 mM MgCl2, 1 μM A23187, 20 mM Tris, pH 7.5. Then, 20 μl of 5 mM Tris-ATP containing 50 nCi of ^32P-ATP (3-10 Ci/mmol, Perkin Elmer) was added. The ATP hydrolysis was continued for 15 min at 37° C. and was stopped by acidification with 100 μl of 20% v/v ice-cold perchloric acid. ^32P was separated by centrifugation with activated charcoal (Norit A, SERVA) and the radioactivity was measured. SERCA2a-dependent activity was identified as the portion of total hydrolytic activity inhibited by 10 μM cyclopiazonic acid (see Seidler N W. et al., J Biol Chem. 1989; 264:17816-23).
Dose-response curves were fitted by using a sigmoidal curve fitting software and the maximal velocity (Vmax) activity and the Kd Ca2^+ were calculated (Synergy Software KaleidaGraph 3.6).
The compounds disclosed herein were tested on SERCA2a ATPase activity prepared from normal and failing dogs in a range of concentrations from […]. The effect has been expressed as % increase of the Vmax activity of a control sample run in the absence of compound. Data are mean & SD, where n indicates the number of experiments.

SERCA2a, sequence (O46674 whole entry): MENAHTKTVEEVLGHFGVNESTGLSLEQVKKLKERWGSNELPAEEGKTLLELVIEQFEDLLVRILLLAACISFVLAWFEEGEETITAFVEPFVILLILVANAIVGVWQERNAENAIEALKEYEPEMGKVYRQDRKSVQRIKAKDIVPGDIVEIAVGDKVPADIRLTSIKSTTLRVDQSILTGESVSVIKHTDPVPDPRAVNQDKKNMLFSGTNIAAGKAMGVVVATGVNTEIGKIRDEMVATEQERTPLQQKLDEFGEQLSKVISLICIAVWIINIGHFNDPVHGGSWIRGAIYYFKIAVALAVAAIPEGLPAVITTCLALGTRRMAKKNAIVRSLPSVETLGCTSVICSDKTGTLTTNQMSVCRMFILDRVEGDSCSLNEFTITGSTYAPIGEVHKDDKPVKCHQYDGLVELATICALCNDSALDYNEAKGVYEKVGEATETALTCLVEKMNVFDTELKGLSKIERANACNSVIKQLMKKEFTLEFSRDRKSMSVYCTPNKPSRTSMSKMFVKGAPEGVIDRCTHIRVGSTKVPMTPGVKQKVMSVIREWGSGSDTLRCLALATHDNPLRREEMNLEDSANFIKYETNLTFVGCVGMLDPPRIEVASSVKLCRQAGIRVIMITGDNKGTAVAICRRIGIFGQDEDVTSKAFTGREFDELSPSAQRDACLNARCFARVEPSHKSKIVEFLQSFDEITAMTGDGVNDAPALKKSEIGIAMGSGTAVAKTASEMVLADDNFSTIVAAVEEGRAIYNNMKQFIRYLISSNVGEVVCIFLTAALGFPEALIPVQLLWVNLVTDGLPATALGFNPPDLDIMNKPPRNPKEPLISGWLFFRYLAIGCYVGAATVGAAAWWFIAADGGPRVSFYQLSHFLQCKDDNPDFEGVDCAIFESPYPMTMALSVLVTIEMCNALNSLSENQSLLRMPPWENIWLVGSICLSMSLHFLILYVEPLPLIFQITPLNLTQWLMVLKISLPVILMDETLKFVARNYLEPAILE

For orientation: LD50 means the dose expected to kill half of the subjects tested. By IC50 is commonly meant the concentration that inhibits the measured activity by half. As for `C[C@]12CCC(=NOCCN)C[C@@H]1C(=O)C[C@@H]1[C@@H]2CC[C@]2(C)C(=O)CC[C@@H]12` [Istaroxime, (3Z,5a)-3-[(2-aminoethoxy)imino]androstane-6,17-dione], the “plasma concentration course during the infusion period” value in data set [1] was “remain relatively constant”. For the same compound, in data set [1] (at 48 hours), the plasma levels entry is reported as “not detectable”. Also, the plasmatic level entry in data set [1] (following time points, whole duration of the infusion) is reported as “about 8 ng/ml”. Besides, in data set [1] (human, plasma, intravenous, at 3 hour time point of infusion, read-out: plasmatic level), the concentration at 3 h is around 10 ng/mL. Also, the LD50 at 24 h in data set [2] (iv) is 29 to 32 mg/kg; in data set [2] (os (oral)), 200 mg/kg. For the same compound, the IC50 on dog renal Na,K-ATPase (purified dog kidney enzyme, 37° C., read-out: IC50, inhibition of dog renal Na,K-ATPase) came to 140 nM. Moreover, the “% increase vs control (Vmax)” value at SERCA2a (0.1 nM compound) is reported as 14* %; at SERCA2a (10 nM compound), 20** %. Besides, the Vmax at SERCA2a (0.1 nM compound) came out at 1.423 ± 0.123 μmol/min/mg prot; at SERCA2a (10 nM compound) it was 1.505 ± 0.111 μmol/min/mg prot. The SERCA2a activity stimulation entry on SERCA2a (normal dog SR vesicles, 0.1 nM and 10 nM) was “significantly stimulated”.

`C[C@]12CCC(=NOCC(=O)O)CC1[C@H](O)CC1C2CC[C@]2(C)C(=O)CCC12` (stereo partly drawn) [PST 3093, (E,Z)-[(6-beta-hydroxy-17-oxoandrostan-3-ylidene)amino]oxyacetic acid]: in data set [1], the “plasma concentration course during the infusion period” value is recorded as “continue to accumulate”. Also, the average plasma level result was “about 21.2 ng/ml” in data set [1] (at 48 hours, 1 μg/kg/min istaroxime infusion); “about 25.02 ng/ml” in data set [1] (at 48 hours, Caucasian patients, 0.5 μg/kg/min istaroxime infusion); “about 12.5 ng/ml” in data set [1] (at 48 hours, Chinese patients, 0.5 μg/kg/min istaroxime infusion). Besides, the average plasma concentration result was “exceeding 10 ng/mL” in data set [1] (at 70 hours, or 46 hours post-infusion) and “exceeding 60 ng/mL” in data set [1] (by the end of the 24 h istaroxime infusion period (0.5 or 1 μg/kg/min)). Further, the LD50 at 24 h in data set [2] (iv) was above 250 mg/kg; in data set [2] (os (oral)) it was above 200 mg/kg. The same compound returned a half-maximal inhibitory concentration (IC50) on dog renal Na,K-ATPase above 100000 nM. The “% increase vs control (Vmax)” value was 25** % on SERCA2a (0.1 nM compound) and 19** % at SERCA2a (10 nM compound).
